Results from US20120196858A1, “METHOD OF PROMOTING APOPTOSIS AND INHIBITING METASTASIS” (Poniard Pharmaceuticals ,Inc., priority 2009, published 2012).

Columns and labels:
[1] = tested on: 4T1 cells; experiment: 3D spheroid size assay; type: cell-based, murine; details: 72 h
Procedure: Anchorage-dependent, spheroid, and soft agar cell growth assays: Cells (2×10^5) were plated per 35 mm well under adherent (tissue culture-treated) and non-adherent conditions (poly-HEMA-coated) in 6-well plates (Costar) in growth media. Between 24 and 168 h, all cells were collected, a single cell suspension was prepared by limited trypsin-EDTA treatment, and viable cells were enumerated by trypan blue staining and counting (ViCell XR, Beckman). For spheroid area determination, cells were imaged after 72 h in phase contrast using an Olympus IX51 microscope. Area was calculated using Image J software (version 1.43). For soft agar assays, 48-well plates were coated with a 1:4 mix of 2% agar (EM Science) in 0.2 ml growth media (bottom layer). 5×10^4 cells were plated per well (in triplicate) in a mixture of 0.3% agar in 0.2 ml growth media (top layer). […] After 10 days, colonies were imaged in phase contrast, enumerated by counting 9 fields (3 fields per well), and total area determined using Image J. For all analyses, experimental points were performed in triplicate and were experiments were repeated at least two times.

[2] = tested on: MDA-MB-231 cells; experiment: Apoptosis assay of suspended cells (annexin V, flow cytometry); type: cell-based, human; details: up to 10 μM, within 6 h
Procedure: Quadrant gates were positioned based on cell autofluorescence (negative) staurosporine-treated (positive) controls. Apoptosis was calculated to be the percent of annexin V-positive cells.

[3] = tested on: interleukin-6 (IL-6) production in 4T1 cells; experiment: IL-6 ELISA after TNFα stimulation; type: cell-based, murine; details: 0.25 to 1.0 μM; TNFα 10 ng/ml, 24 h
Procedure: After 1 h, recombinant tumor necrosis factor-α (TNFα eBioScience) was added (10 ng/ml) and after 24 h, IL-6 levels in conditioned media were measured using anti-mouse IL-6 ELISA kit (eBioScience).

[4] = tested on: 4T1 tumors; experiment: Subcutaneous mCherry 4T1 tumor growth in BALB/c mice; type: in vivo
Procedure: Detection of apoptosis in tumors: Fresh tumors were snap-frozen in Optimal Cutting Temperature (OCT) compound (Tissue Tek), thin sectioned ([…]) using a cryomicrotome (Leica 3050S) and mounted onto glass slides. Sections were fixed with 3% paraformaldehyde, permeabilized in PBS containing 0.1% Triton for 3 min, and blocked with 8% goat serum in PBS for 60 min at RT. For activated caspase-3 detection, sections were incubated with cleaved caspase-3 antibody (1:200 diluted in 2% goat serum in PBS) for 18 h at 4° C., washed with PBS, and incubated with fluorescein isothiocyanate conjugated anti-rabbit and TOPRO-3 (blue) for DNA detection. Sections were imaged on a Nikon Eclipse C1 confocal microscope with a 1.4 NA 60× oil objective, with a 30 μm pinhole setting, and analyzed using EZ-C1 3.50 software (Nikon). Tumor apoptosis was also measured by terminal deoxynucleotidyl transferase dUTP nick end labeling (TUNEL) staining using the tetramethylrhodamine (TMR) kit as per the manufacturer's instructions (Roche). Bright field and fluorescent images of whole tumor sections were obtained using Zeiss M2-Bio Stereo microscope equipped with INFINITY1-3C: digital color camera and a 4× objective.
Mouse tumor studies: Six to eight week old female C57B16 and BALB/c mice were obtained from Harlan Laboratories (Indianapolis, Ind.) and housed in pathogen-free conditions, according to the guidelines of the Association for the Assessment and Accreditation for Laboratory Animal Care, International. All in vivo studies were carried out under an approved institutional experimental animal care and use protocol. Growing tumor cells were harvested by limited trypsinization, washed in PBS, and counted using a ViCell XR (Beckman) prior to injection. Cell viability as measured by trypan blue exclusion was >95%. For subcutaneous tumor growth, 1×10^6 mCherry-labeled 4T1 cells in 100 μl PBS were injected into the hindflank of Balb/C mice. […] Control animals received PEG400:PBS injections and at 13 days, tumors were imaged in situ using an Olympus OV100 Intravital Fluorescence Molecular Imaging System, tumors were excised and weighed, half was frozen in OCT, and half was solubilized in protein lysis buffer for FAK phosphorylation analyses. For ID8 ovarian carcinoma tumor growth, 0.8 mL of 1×10^7 ID8 cells in PBS was intraperitoneal injected into C57B16 mice. […] Administration continued ad libitum for 30 days after which mice were euthanized, ascites fluid collected, cells obtained by centrifugation (2000 rpm for 5 min), cell volume measured by pipet, and then solubilized in protein lysis buffer for immunoblotting analyses.

[5] = Solubility in water; type: physicochemical; details: HCl salt
Source text: 10, 2008, and published as WO 2008/115369.

For `CNC(=O)c1ccccc1Nc1cc(Nc2ccc(N3CCOCC3)cc2OC)ncc1C(F)(F)F` [PND-1186], the “reduction in average spheroid size” value ([1]; 0.1 μM) was roughly 3 fold, the “concentration of maximal effect on spheroid size” value [1] was 0.2 µM and the “MDA-MB-231 apoptosis in suspension” value [2] was “did not promote increased MDA-MB-231 apoptosis”. For the same compound, the “TNFα-triggered IL-6 release” value [3] was “inhibited IL-6 release in a dose-dependent manner”, the final tumor weight ([4]; 30 mg/kg b.i.d., 5 days) was “slightly reduced final tumor weight but was not significantly different” and the “cleaved caspase-3 staining in tumors” value ([4]; 100 mg/kg) was “elevated cleaved caspase-3 staining”. The “reduction of final tumor weight” value ([4]; 100 mg/kg b.i.d., 5 days) was 2 fold, the “tumor TUNEL staining” value ([4]; 30 and 100 mg/kg b.i.d., vs vehicle) was “significantly increased tumor TUNEL staining” and the solubility [5] was 22 mg/mL.
